Measurements taken from patent EP2992880A1, “Use of heme oxygenase 1 inducers and cannabinoid 2 receptor or delta-opioid receptor agonists in inflammatory pain” (Fundació Institut de Recerca de l'Hospital de la Santa Creu …, priority 2014, dated 2016).

Experiments:
CFA-injected mice = assay: von Frey filaments test (mechanical allodynia) in CFA-induced chronic inflammatory pain; type: in vivo, male C57BL/6 mice
Protocol: The experiments were performed in male C57BL/6 mice acquired from Harlan Laboratories (Barcelona, Spain). All mice weighing 21 to 25 g were housed under 12-h/12-h light/ dark conditions in a room with controlled temperature (22° C) and humidity (66%). Animals had free access to food and water and were used after a minimum of 7 days acclimatization to the housing conditions. All experiments were performed according with the Guide for the Care and Use of Laboratory Animals as adopted and promulgated by the U.S. National Institutes of Health and approved by the local Committee of Animal Use and Care of the Autonomous University of Barcelona. All efforts were made to minimize animal suffering and to reduce the number of animals used.
Chronic inflammatory pain was induced by the subplantar injection of 30 µl of CFA (Sigma) into the right hind paw under brief anesthetic conditions with isoflurane according to previous works (Leánez et al., Eur J Pharmacol, 2009, 602:41-49; Hervera et al., Naunyn Schmiedebergs Arch Pharmacol, 2009, 380:345-352). All experiments were performed at 10 days after CFA injection. At this time point, all of these animals developed a local inflammatory reaction, allodynia to mechanical stimuli and hyperalgesia to noxious thermal stimuli, as previously reported (Negrete et al., PLoS One, 2011, 6:e26688). The development of mechanical allodynia and thermal hyperalgesia was evaluated by using the von Frey filaments and plantar tests, respectively. All animals were tested in each paradigm before and at 10 days after CFA-injection.
Mechanical allodynia was quantified by measuring the hind paw withdrawal response to von Frey filament stimulation. In brief, animals were placed in methacrylate cylinders (20 cm high, 9 cm diameter; Servei Estació, Barcelona, Spain) with a wire grid bottom through which the von Frey filaments (North Coast Medical, Inc., San Jose, CA) with a bending force in the range of 0.008-3.5 g were applied by using a modified version of the up-down paradigm, as previously reported by Chaplan et al. (J Neurosci Methods, 1994, 53:55-63). The filament of 0.4 g was used first and the 3.0 g filament was used as a cut-off. Then, the strength of the next filament was decreased or increased according to the response. The threshold of response was calculated from the sequence of filament strength used during the up-down procedure by using an Excel program (Microsoft Iberia SRL, Barcelona, Spain) that includes curve fitting of the data. Clear paw withdrawal, shaking, or licking of the paw was considered as a nociceptive-like response. Both ipsilateral and contralateral hind paws were tested. Animals were allowed to habituate for 1 h before testing in order to allow an appropriate behavioral immobility.
In a first set of experiments, we assessed the expression of inflammatory pain induced by the subplantar administration of CFA as previously used (Leánez et al., Eur J Pharmacol, 2009, 602:41-49). After the habituation period, baseline responses were established in the following sequence: von Frey filaments and plantar test. After baseline measurements, inflammatory pain was induced and animals were again tested in each paradigm at day 10 after CFA injection by using the same sequence as for baseline responses. The contralateral paws were used as controls (n = 6 animals per group).
In a second set of experiments, we evaluated the mechanical antiallodynic and thermal antihyperalgesic effects of the subplantar administration of different doses of a specific DOR (DPDPE) or CB2R (JWH-015) agonist and their respective vehicles in the contralateral and ipsilateral paw of CFA-injected animals (n = 6 animals per group). […]

CB2R = assay: Western blot of CB2R protein in dorsal root ganglia of CFA-injected mice; type: in vivo; conditions: CoPP treatment of CFA-injected mice (Fig. 8)
Protocol: Animals were sacrificed at 0 days (naive) and after CFA-injection by cervical dislocation. Tissues from the ipsilateral section of the dorsal root ganglia (L3 to L5) were removed immediately after killing, frozen in liquid nitrogen, and stored at -80°C until assay. Samples from five animals were pooled into one experimental sample to obtain enough protein levels for performing Western blot analysis. The HO-1, DOR and CB2R protein levels were analyzed by Western blot. […]
The proteins were electrophoretically transferred onto PVDF membrane for 120 min, blocked with PBS + 5% nonfat dry milk, and subsequently incubated overnight at 4°C with polyclonal rabbit anti-HO-1 (1:300, Stressgen, Ann Arbor, MI), anti-DOR (1:2500, Chemicon-Millipore) or anti-CB2R (1:500, Abcam, Cambridge, United Kingdom). The proteins were detected by a horseradish peroxidase-conjugated anti-rabbit secondary antibody (GE Healthcare, Little Chalfont, Buckinghamshire, United Kingdom) and visualized with chemiluminescence reagents (ECL kit; GE Healthcare) and by exposure onto hyperfilm (GE Healthcare). The intensity of blots was quantified by densitometry. […]
Finally, in another set of experiments we evaluated the effects of CoPP on the expression of HO-1, DOR and CB2R in the ipsilateral site of the dorsal root ganglia from CFA-injected mice, by using Western blot assay. […]

With “cobalt (III) protoporphyrin IX chloride [CoPP]” the “effect of CoPP treatment on the mechanical antiallodynic effects of DPDPE” value (CFA-injected mice; CoPP 10 mg/kg intraperitoneal, DPDPE 50 µg subplantar (Fig. 3A)) was “did not alter”, the “effect of CoPP treatment on the antiallodynic effects of JWH-015” value (CFA-injected mice; CoPP 10 mg/kg intraperitoneal, JWH-015 30 µg subplantar, P < 0.001 (Fig. 4A)) was “significantly enhanced” and the “mechanical allodynia induced by peripheral inflammation” value (CFA-injected mice; CoPP alone 10 mg/kg intraperitoneal, ipsilateral paw, P < 0.001 versus vehicle (Fig. 3A)) was “significantly attenuated”. For the same substance, the “Mechanical allodynia, Experimental results (%) (maximal possible effect)” value (CFA-injected mice; Table 5, ipsilateral paw, CoPP 10 mg/kg intraperitoneal, DPDPE 50 µg subplantar, vehicle 5.8) was 27.1%, the “Mechanical allodynia, Experimental results (%) (maximal possible effect)” value (CFA-injected mice; Table 6, ipsilateral paw, CoPP 10 mg/kg intraperitoneal, JWH-015 30 µg subplantar, vehicle 4.1) was 25.3% and the “peripheral expression of CB2R in the dorsal root ganglia from CFA-injected mice” value (CB2R) was “remains unaltered”.
